Measured values as given in patent publication US6737383B1, “Herbicidal oxadiazolidines” (priority 1999, dated 2004).

Key:
rice = test: Test B flood test rice; format: in vivo, Oryza sativa
Summary of the method: (§1)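 Plants were grown to the 2-leaf stage before treatment with test chemical, then held in a greenhouse for twelve to sixteen days. Injury was visually rated against untreated controls on a 0–10 scale, where 0 is no effect and 10 is complete control.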

duck salad = test: Test B flood test duck salad; format: in vivo, Heteranthera limosa
Summary of the method: as §1

velvetleaf = test: Test B pre/postemergence velvetleaf; format: in vivo, Abutilon theophrasti
Summary of the method: (§2)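 Test chemicals in a non-phytotoxic solvent mixture with surfactant were sprayed preemergence onto planted seeds and postemergence onto plants 2 to 18 cm tall (1- to 4-leaf stage). After twelve to sixteen days in a greenhouse, injury was visually rated against untreated controls from 0 (no effect) to 10 (complete control).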

wild oat = test: Test B pre/postemergence wild oat; format: in vivo, Avena fatua
Summary of the method: as §2

wheat = test: Test B pre/postemergence wheat; format: in vivo, Triticum aestivum
Summary of the method: as §2

smallflower flatsedge = test: Test B flood test smallflower flatsedge; format: in vivo, Cyperus difformis
Summary of the method: as §1

corn = test: Test B pre/postemergence corn; format: in vivo, Zea mays
Summary of the method: as §2

sugar beet = test: Test B pre/postemergence sugar beet; format: in vivo, Beta vulgaris
Summary of the method: as §2

cocklebur = test: Test B pre/postemergence cocklebur; format: in vivo, Xanthium strumarium
Summary of the method: as §2

bedstraw = test: Test B pre/postemergence bedstraw; format: in vivo, Galium aparine; conditions: for Bedstraw plant response rating: Rate 62 g/ha
Summary of the method: as §2

crabgrass = test: Test B pre/postemergence crabgrass; format: in vivo, Digitaria sanguinalis
Summary of the method: as §2

blackgrass = test: Test B pre/postemergence blackgrass; format: in vivo, Alopecurus myosuroides
Summary of the method: as §2

soybean = test: Test B pre/postemergence soybean; format: in vivo, Glycine max; conditions: for Plant response rating, Soybean: Postemergence
Summary of the method: as §2

purple nutsedge = test: Test B pre/postemergence purple nutsedge; format: in vivo, Cyperus rotundus
Summary of the method: as §2

surinam grass = test: Test B pre/postemergence surinam grass; format: in vivo, Brachiaria decumbens
Summary of the method: as §2

bamyardgrass = test: Test B flood test barnyardgrass; format: in vivo, Echinochloa crus-galli
Summary of the method: as §1

[1] = Rate 62 g/ha, headed Pre-emergence (flood test species), scale 0 to 10 (0 no effect, 10 complete control)
[2] = Rate 125 g/ha, Pre-emergence, flood test species, scale 0 to 10 where 0 is no effect and 10 is complete control
[3] = Rate 250 g/ha, Pre-emergence, flood-test species, scale 0 to 10, 0 is no effect, 10 is complete control
[4] = Rate 500 g/ha, Pre-emergence, flood test species, scale 0 to 10 (0 no effect, 10 complete control)
[5] = Postemergence, Rate 125 g/ha, scale 0 to 10, 0 is no effect, 10 is complete control
[6] = Preemergence, Rate 62 g/ha, scale of 0 to 10 where 0 is no effect and 10 is complete control
[7] = Preemergence, Rate 250 g/ha, scale of 0 to 10 where 0 is no effect and 10 is complete control
[8] = Preemergence, Rate 500 g/ha, scale of 0 to 10 where 0 is no effect and 10 is complete control
[9] = Rate 62 g/ha, Postemergence, scale 0 to 10 (0 no effect, 10 complete control)
[10] = Rate 250 g/ha, Postemergence, scale of 0 to 10 where 0 is no effect and 10 is complete control
[11] = Rate 500 g/ha, Postemergence, scale 0 to 10, 0 no effect, 10 complete control

`CC(C)N(C(=O)n1oc(=O)n(C2CC3CCC2C3)c1=O)c1ccccc1` (centres unmarked) [Compound 328] was tested, and the “Rice plant response rating” value (rice; [1]) was 0, the “Rice plant response rating” value (rice; [2]) was 0 and the “Rice plant response rating” value (rice; [3]) was 0. The “Rice plant response rating” value (rice; [4]) was 7, the “Ducksalad plant response rating” value (duck salad; [1]) was 0 and the “Ducksalad plant response rating” value (duck salad; [2]) was 0. The “Ducksalad plant response rating” value (duck salad; [3]) was 0, the “Ducksalad plant response rating” value (duck salad; [4]) was 0 and the “Plant response rating, Velvetleaf” value (velvetleaf; [5]) was 0. For the same compound, the “Velvetleaf plant response rating” value (velvetleaf; [6]) was 0, the “Velvetleaf plant response rating (0 to 10 scale)” value (velvetleaf; Preemergence, Rate 125 g/ha) was 0 and the “Velvetleaf plant response rating” value (velvetleaf; [7]) was 0. The “Velvetleaf plant response rating” value (velvetleaf; [8]) was 0, the “Velvetleaf plant response rating” value (velvetleaf; [9]) was 0 and the “Plant response rating, Velvetleaf” value (velvetleaf; [10]) was 0. For the same compound, the “Plant response rating, Velvetleaf” value (velvetleaf; [11]) was 0, the “Plant response rating, Wild oats” value (wild oat; [5]) was 0 and the “Wild oats plant response rating” value (wild oat; [6]) was 0. For the same compound, the “Wild oats plant response rating (0 to 10 scale)” value (wild oat; Preemergence, Rate 125 g/ha) was 0, the “Wild oats plant response rating” value (wild oat; [7]) was 0 and the “Wild oats plant response rating” value (wild oat; [8]) was 1. The “Wild oats plant response rating” value (wild oat; [9]) was 0, the “Plant response rating, Wild oats” value (wild oat; [10]) was 0 and the “Plant response rating, Wild oats” value (wild oat; [11]) was 0. The “Plant response rating, Wheat” value (wheat; [5]) was 0, the “Wheat plant response rating” value (wheat; [6]) was 0 and the “Wheat plant response rating (0 to 10 scale)” value (wheat; Preemergence, Rate 125 g/ha) was 0. For the same compound, the “Wheat plant response rating” value (wheat; [7]) was 0, the “Wheat plant response rating” value (wheat; [8]) was 0 and the “Wheat plant response rating” value (wheat; [9]) was 0. For the same compound, the “Plant response rating, Wheat” value (wheat; [10]) was 0, the “Plant response rating, Wheat” value (wheat; [11]) was 0 and the “S. Flatsedge plant response rating” value (smallflower flatsedge; [1]) was 0. For the same compound, the “S. Flatsedge plant response rating” value (smallflower flatsedge; [2]) was 0, the “S. Flatsedge plant response rating” value (smallflower flatsedge; [3]) was 0 and the “S. Flatsedge plant response rating” value (smallflower flatsedge; [4]) was 0. For the same compound, the “Plant response rating, Corn” value (corn; [5]) was 0, the “Corn plant response rating” value (corn; [6]) was 0 and the “Corn plant response rating (0 to 10 scale)” value (corn; Preemergence, Rate 125 g/ha) was 0. For the same compound, the “Corn plant response rating” value (corn; [7]) was 0, the “Corn plant response rating” value (corn; [8]) was 0 and the “Corn plant response rating” value (corn; [9]) was 0. The “Plant response rating, Corn” value (corn; [10]) was 0, the “Plant response rating, Corn” value (corn; [11]) was 0 and the “Plant response rating, Sugarbeets” value (sugar beet; [5]) was 0. For the same compound, the “Sugarbeets plant response rating” value (sugar beet; [6]) was 0, the “Sugarbeets plant response rating (0 to 10 scale)” value (sugar beet; Preemergence, Rate 125 g/ha) was 0 and the “Sugarbeets plant response rating” value (sugar beet; [7]) was 0. For the same compound, the “Sugarbeets plant response rating” value (sugar beet; [8]) was 0, the “Sugarbeets plant response rating” value (sugar beet; [9]) was 0 and the “Plant response rating, Sugarbeets” value (sugar beet; [10]) was 0. For the same compound, the “Plant response rating, Sugarbeets” value (sugar beet; [11]) was 0, the “Plant response rating, Cocklebur” value (cocklebur; [5]) was 0 and the “Cocklebur plant response rating (0 to 10 scale)” value (cocklebur; Preemergence, Rate 125 g/ha) was 0. The “Cocklebur plant response rating” value (cocklebur; [7]) was 0, the “Cocklebur plant response rating” value (cocklebur; [8]) was 0 and the “Cocklebur plant response rating” value (cocklebur; [9]) was 0. For the same compound, the “Plant response rating, Cocklebur” value (cocklebur; [10]) was 0, the “Plant response rating, Cocklebur” value (cocklebur; [11]) was 0 and the “Plant response rating, Bedstraw” value (bedstraw; [5]) was 1. For the same compound, the “Bedstraw plant response rating” value (bedstraw; Preemergence, scale of 0 to 10 where 0 is no effect and 10 is complete control) was 0, the “Bedstraw plant response rating (0 to 10 scale)” value (bedstraw; Preemergence, Rate 125 g/ha) was 0 and the “Bedstraw plant response rating” value (bedstraw; Postemergence, scale 0 to 10 (0 no effect, 10 complete control)) was 0. The “Plant response rating, Bedstraw” value (bedstraw; [10]) was 4, the “Plant response rating, Crabgrass” value (crabgrass; [5]) was 0 and the “Crabgrass plant response rating” value (crabgrass; [6]) was 0. The “Crabgrass plant response rating (0 to 10 scale)” value (crabgrass; Preemergence, Rate 125 g/ha) was 0, the “Crabgrass plant response rating” value (crabgrass; [7]) was 3 and the “Crabgrass plant response rating” value (crabgrass; [8]) was 5. For the same compound, the “Crabgrass plant response rating” value (crabgrass; [9]) was 0, the “Plant response rating, Crabgrass” value (crabgrass; [10]) was 0 and the “Plant response rating, Crabgrass” value (crabgrass; [11]) was 2. For the same compound, the “Plant response rating, Blackgrass” value (blackgrass; [5]) was 1, the “Blackgrass plant response rating” value (blackgrass; [6]) was 0 and the “Blackgrass plant response rating (0 to 10 scale)” value (blackgrass; Preemergence, Rate 125 g/ha) was 0. For the same compound, the “Blackgrass plant response rating” value (blackgrass; [7]) was 4, the “Blackgrass plant response rating” value (blackgrass; [8]) was 7 and the “Blackgrass plant response rating” value (blackgrass; [9]) was 0. The “Plant response rating, Blackgrass” value (blackgrass; [10]) was 5, the “Plant response rating, Blackgrass” value (blackgrass; [11]) was 5 and the “Plant response rating, Soybean” value (soybean; Rate 125 g/ha, scale 0 to 10, 0 is no effect, 10 is complete control) was 2. For the same compound, the “Soybean plant response rating” value (soybean; [6]) was 0, the “Soybean plant response rating (0 to 10 scale)” value (soybean; Preemergence, Rate 125 g/ha) was 0 and the “Soybean plant response rating” value (soybean; [7]) was 0. The “Soybean plant response rating” value (soybean; [8]) was 0, the “Plant response rating, Soybean” value (soybean; Rate 250 g/ha, scale of 0 to 10 where 0 is no effect and 10 is complete control) was 5 and the “Plant response rating, Soybean” value (soybean; Rate 500 g/ha, scale 0 to 10, 0 no effect, 10 complete control) was 6. For the same compound, the “Plant response rating, Nutsedge” value (purple nutsedge; [5]) was 0, the “Nutsedge plant response rating” value (purple nutsedge; [6]) was 0 and the “Nutsedge plant response rating (0 to 10 scale)” value (purple nutsedge; Preemergence, Rate 125 g/ha) was 0. For the same compound, the “Nutsedge plant response rating” value (purple nutsedge; [7]) was 0, the “Nutsedge plant response rating” value (purple nutsedge; [8]) was 0 and the “Nutsedge plant response rating” value (purple nutsedge; [9]) was 0. For the same compound, the “Plant response rating, Nutsedge” value (purple nutsedge; [10]) was 0, the “Plant response rating, Nutsedge” value (purple nutsedge; [11]) was 0 and the “Plant response rating, B. signalgrass” value (surinam grass; [5]) was 0. For the same compound, the “B. signalgrass plant response rating” value (surinam grass; [6]) was 0, the “B. signalgrass plant response rating (0 to 10 scale, 0 is no effect, 10 is complete control)” value (surinam grass; Preemergence, Rate 125 g/ha) was 0 and the “B. signalgrass plant response rating” value (surinam grass; [7]) was 0. The “B. signalgrass plant response rating” value (surinam grass; [8]) was 5, the “B. signalgrass plant response rating” value (surinam grass; [9]) was 0 and the “Plant response rating, B. signalgrass” value (surinam grass; [10]) was 0. The “Plant response rating, B. signalgrass” value (surinam grass; [11]) was 0, the “Barnyardgrass plant response rating” value (bamyardgrass; [1]) was 0 and the “Barnyardgrass plant response rating” value (bamyardgrass; [2]) was 0. The “Barnyardgrass plant response rating” value (bamyardgrass; [3]) was 0 and the “Barnyardgrass plant response rating” value (bamyardgrass; [4]) was 0.
